The test system of series [1] is NRK-49F. Description: Inhibition of TGF-beta-induced collagen accumulation in rat NRK-49F cells at 10 uM incubated for 2 days by PSR staining based microscopic analysis relative to control. The conditions noted are these: 48 h. Format: functional.
Series [2] can be described thus: Cytotoxicity against rat NRK-49F cells assessed as cell viability at 10 uM incubated for 72 hrs by MTT assay. Conditions: read-out: Activity. Format: cell-based.
Series [3] has as its system NRK-49F. Put plainly: Inhibition of TGF-beta-induced collagen accumulation in rat NRK-49F cells incubated for 2 days by PSR staining based microscopic analysis. Format: functional, cell-based. Conditions: for IC50: 48 h.
The subject of the next series is NIH3T3. Put plainly: Inhibition of TGF-beta-induced […] migration in mouse NIH/3T3 cells at 1 uM incubated for 24 hrs by Transwell assay. Format: functional, cell-based.

Activity calls are given as the source filed them. The rule behind the calls is not given here.

One may read the inhibition as the percentage by which the read-out fell short of the control. In general, IC50 refers to the midpoint of a concentration-inhibition curve. The low end stands for greater potency in that assay, the high end for weaker potency in that assay.

`O=C(CN1CCCCC1)Nc1ccc(Nc2cc(=O)oc3ccccc23)cc1` showed an inhibition at 10 µM in the series on NRK-49F [1] of 75.2%. In addition, the viability at 72 h, 10 µM in series [2] worked out at 43.6%.

`C[C@H]1CCCN(CC(=O)Nc2ccc(Oc3cc(=O)oc4ccccc34)cc2)C1` came in with an inhibition at 10 µM in the series with NRK-49F [1] of 75.3%. For the same compound, the viability at 72 h, 10 µM in series [2] is 98%.

As to `COc1ccc2c(Oc3ccc(NC(=O)CN4CCC[C@H](C)C4)cc3)cc(=O)oc2c1`, in the series with NRK-49F [1], at 10 µM the inhibition was 32.6%. The viability at 72 h, 10 µM in series [2] is 90.5%.

Compound `O=C(CN1CCCC1)Nc1ccc(Oc2cc(=O)oc3ccccc23)cc1` came in with an inhibition at 10 µM in the series with NRK-49F [1] of 18.8%. In addition, in series [2], the viability at 72 h, 10 µM turned out to be 82.9%.

`CN1CCN(CC(=O)Nc2ccc(Oc3cc(=O)oc4ccccc34)cc2)CC1` showed an inhibition at 10 µM in the series on NRK-49F [1] of 24%. In addition, the viability at 72 h, 10 µM in series [2] came to 83.6%.

With `COc1ccc2c(Oc3ccc(NC(=O)CN4CCCCC4)cc3)cc(=O)oc2c1`, in the series with NRK-49F [1], the inhibition at 10 µM was 73.5%. Moreover, the viability at 72 h, 10 µM in series [2] worked out at 90.4%.

Compound `O=C(CN1CCCC1)Nc1ccc(Nc2cc(=O)oc3ccccc23)cc1F` registered an inhibition at 10 µM with NRK-49F [1] of 33.3%. Also, the viability at 72 h, 10 µM in series [2] was found to be 74.3%.

The compound `COc1ccc2c(Nc3ccc(NC(=O)CN4CCC[C@H](C)C4)cc3)cc(=O)oc2c1` came in with an inhibition at 10 µM in the series on NRK-49F [1] of 72.7%. In addition, in series [2], the viability at 72 h, 10 µM worked out at 90.1%.

With `COc1ccc2c(Nc3ccc(NC(=O)CN4CCCC4)cc3)cc(=O)oc2c1`, the inhibition at 10 µM in the series with NRK-49F [1] came to 15.7%. The viability at 72 h, 10 µM in series [2] is 52%.

Regarding `O=C(CN1CCCCC1)Nc1ccc(Nc2cc(=O)oc3ccc([N+](=O)[O-])cc23)cc1`, testing at 10 µM in the series on NRK-49F [1] gave an inhibition of 15.4%. Further, the viability at 72 h, 10 µM in series [2] is 20.3%.

As for `O=C(CN1CCCC1)Nc1ccc(Nc2cc(=O)oc3ccc([N+](=O)[O-])cc23)cc1`, the inhibition at 10 µM in the series on NRK-49F [1] stood at 17.9%. Also, the viability at 72 h, 10 µM in series [2] was 45.3%.

`CN1CCN(CC(=O)Nc2ccc(Nc3cc(=O)oc4ccc([N+](=O)[O-])cc34)cc2)CC1` had an inhibition at 10 µM with NRK-49F [1] of 22.3%. In addition, the viability at 72 h, 10 µM in series [2] amounted to 32.1%.

For `COc1ccc2c(Nc3ccc(NC(=O)CN4CCOCC4)cc3)cc(=O)oc2c1`, at 10 µM the inhibition with NRK-49F [1] was 72.9%. Further, in series [2], the viability at 72 h, 10 µM came to 89.1%.

`COc1ccc2c(Nc3ccc(NC(=O)CN4CCCCC4)cc3)cc(=O)oc2c1` showed an inhibition at 10 µM in the series on NRK-49F [1] of 74.5%. Moreover, the viability at 72 h, 10 µM in series [2] worked out at 41.3%.

The compound `COc1ccc2c(Nc3ccc(NC(=O)CN4CCN(C)CC4)cc3)cc(=O)oc2c1` showed an inhibition at 10 µM in the series with NRK-49F [1] of 80.2%. Moreover, in the series on NRK-49F [3], the inhibition entry is “Dose-dependent effect” and the IC50 was determined as 4.35 µM. In addition, in the series on NIH3T3, the inhibition result was “Active”. In addition, the viability at 72 h, 10 µM in series [2] was found to be 87.2%.

Compound `O=C(CN1CCOCC1)Nc1ccc(Nc2cc(=O)oc3ccccc23)cc1F` registered an inhibition at 10 µM in the series on NRK-49F [1] of 34.5%. Further, the viability at 72 h, 10 µM in series [2] came out at 72.3%.

In the series on NRK-49F [1], `O=C(CN1CCCCC1)Nc1ccc(Nc2cc(=O)oc3ccccc23)cc1F` returned an inhibition at 10 µM of 11.3%. Besides, in series [2], the viability at 72 h, 10 µM amounted to 67.7%.

For `C[C@H]1CCCN(CC(=O)Nc2ccc(Nc3cc(=O)oc4ccc([N+](=O)[O-])cc34)cc2)C1`, 10 µM produced 28.7% inhibition in the series on NRK-49F [1]. Also, in series [2], the viability at 72 h, 10 µM was 17.8%.

With `CN1CCN(CC(=O)Nc2ccc(Nc3cc(=O)oc4ccccc34)cc2)CC1`, in the series on NRK-49F [1], testing at 10 µM gave an inhibition of 26.8%. Further, the viability at 72 h, 10 µM in series [2] was determined as 87.5%.

`COc1ccc2c(Oc3ccc(NC(=O)CN4CCN(C)CC4)cc3)cc(=O)oc2c1` returned an inhibition at 10 µM with NRK-49F [1] of 65.4%. In addition, the viability at 72 h, 10 µM in series [2] amounted to 95.6%.

Compound `O=C(CN1CCOCC1)Nc1ccc(Nc2cc(=O)oc3ccc([N+](=O)[O-])cc23)cc1` came in with an inhibition at 10 µM with NRK-49F [1] of 31.7%. In addition, in series [2], the viability at 72 h, 10 µM amounted to 23.1%.

The compound `COc1ccc2c(Oc3ccc(NC(=O)CN4CCOCC4)cc3)cc(=O)oc2c1` came in with an inhibition at 10 µM with NRK-49F [1] of 78.3%. Moreover, in the series with NRK-49F [3], the inhibition result was “Dose-dependent effect” and inhibition was half-maximal at 3.71 µM (IC50). In addition, the inhibition entry in the series on NIH3T3 is “Active”. The viability at 72 h, 10 µM in series [2] was found to be 96.5%.

`CN1CCN(CC(=O)Nc2ccc(Nc3cc(=O)oc4ccccc34)cc2F)CC1`: at 10 µM the inhibition in the series with NRK-49F [1] was 36.8%. Moreover, the viability at 72 h, 10 µM in series [2] turned out to be 78.1%.

In the case of `O=C(CN1CCCC1)Nc1ccc(Nc2cc(=O)oc3ccccc23)cc1`, the inhibition at 10 µM in the series with NRK-49F [1] turned out to be 12.4%. Further, the viability at 72 h, 10 µM in series [2] stood at 62%.

In turn, `COc1ccc2c(Oc3ccc(NC(=O)CN4CCCC4)cc3)cc(=O)oc2c1` displayed an inhibition at 10 µM in the series with NRK-49F [1] of 8.07%. The viability at 72 h, 10 µM in series [2] came out at 93.3%.

`O=C(CN1CCOCC1)Nc1ccc(Nc2cc(=O)oc3ccccc23)cc1` registered an inhibition at 10 µM with NRK-49F [1] of 41.8%. For the same compound, the viability at 72 h, 10 µM in series [2] stood at 75.2%.

In the case of `C[C@H]1CCCN(CC(=O)Nc2ccc(Nc3cc(=O)oc4ccccc34)cc2F)C1`, the inhibition at 10 µM in the series on NRK-49F [1] was 21.9%. The viability at 72 h, 10 µM in series [2] is 88.5%.

The compound `C[C@H]1CCCN(CC(=O)Nc2ccc(Nc3cc(=O)oc4ccccc34)cc2)C1` came in with an inhibition at 10 µM with NRK-49F [1] of 80.2%. Moreover, in the series on NRK-49F [3], the inhibition entry was “Dose-dependent effect” and the IC50 was 3.96 µM. The inhibition result with NIH3T3 is “Active”. Further, the viability at 72 h, 10 µM in series [2] was 91.5%.

Compound `O=C(CN1CCOCC1)Nc1ccc(Oc2cc(=O)oc3ccccc23)cc1` gave an inhibition at 10 µM with NRK-49F [1] of 34.6%. Moreover, the viability at 72 h, 10 µM in series [2] was determined as 97%.
